Patent publication US11446287B2, “Compounds and methods for EP300 or CBP modulation and indications therefor” (Opna Immuno-Oncology SA, priority 2019, dated 2022)

Each compound was assayed against T1, Recombinant human EP300 containing the bromodomain (EP300-BD (1040-1161)) (Homo sapiens, UniProt Q09472) (assay: EP300 Alphascreen binding assay).
T1 construct: Recombinant human EP300 bromodomain (EP300-BD (1040-1161)); made in house; host or cells: E. coli BL21-CodonPlus (DE3), modified pET vector
T1 sequence (Q09472 1040-1161): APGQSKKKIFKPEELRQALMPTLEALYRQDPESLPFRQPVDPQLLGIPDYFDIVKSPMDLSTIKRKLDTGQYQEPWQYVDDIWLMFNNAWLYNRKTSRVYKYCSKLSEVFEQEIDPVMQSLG
Procedure, shortened: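 Displacement of a biotinylated acetyl-K56 histone H3 peptide from the N-His bromodomain construct (1040-1161) measured by AlphaScreen proximity, beads at 7.5 μg/ml final, read 60 min after addition. Protein, peptide and compound first incubated 1 h at room temperature, pH 7.5 HEPES buffer; IC50 by four-parameter logistic fit.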
In the case of `Cc1noc(C)c1-c1cnc2c(-c3ccccc3)cn(-c3c(Cl)cc(C(=O)O)cc3Cl)c2c1` [P-0150, 3,5-dichloro-4-(6-(3,5-dimethylisoxazol-4-yl)-3-phenyl-1H-pyrrolo[3,2-b]pyridin-1-yl)benzoic acid], the IC50 is reported as 0.1 to 1000 nM.
`Cc1noc(C)c1-c1cnc2c(C3=CCOCC3)cn(-c3c(Cl)cc(C(=O)O)cc3Cl)c2c1` [P-0151, 3,5-dichloro-4-(3-(3,6-dihydro-2H-pyran-4-yl)-6-(3,5-dimethylisoxazol-4-yl)-1H-pyrrolo[3,2-b]pyridin-1-yl)benzoic acid] showed an IC50 of 0.1 to 1000 nM.
`COc1cc(C(=O)O)cc(OCC2CC2)c1-c1cn([C@@H](C)c2ccccn2)c2ncc(-c3c(C)noc3C)cc12` [P-0152, (S)-3-(cyclopropylmethoxy)-4-(5-(3,5-dimethylisoxazol-4-yl)-1-(1-(pyridin-2-yl)ethyl)-1H-pyrrolo[2,3-b]pyridin-3-yl)-5-methoxybenzoic acid] was tested, and the IC50 was 0.1 to 1000 nM.
Compound `COc1cc(C(=O)O)cc(OCC(F)(F)F)c1-c1cn([C@@H](C)c2ccccn2)c2ncc(-c3c(C)noc3C)cc12` [P-0153, (S)-4-(5-(3,5-dimethylisoxazol-4-yl)-1-(1-(pyridin-2-yl)ethyl)-1H-pyrrolo[2,3-b]pyridin-3-yl)-3-methoxy-5-(2,2,2-trifluoroethoxy)benzoic acid] has an IC50 of 0.1 to 1000 nM.
Work on `Cc1noc(C)c1-c1cnc2c(-c3ccc(C(=O)O)cc3)c(C(F)(F)F)n([C@@H](C)c3ccccn3)c2c1` [P-0154, (S)-4-(6-(3,5-dimethylisoxazol-4-yl)-1-(1-(pyridin-2-yl)ethyl)-2-(trifluoromethyl)-1H-pyrrolo[3,2-b]pyridin-3-yl)benzoic acid] yielded an IC50 of 0.1 to 1000 nM.
`Cc1noc(C)c1-c1cnc2c(-c3ccccc3Cl)cn(C(C)(c3ccccn3)c3ccccn3)c2c1` [P-0155, 4-(3-(2-chloropheny1)-1-(1,1-di(pyridin-2-yl)ethyl)-1H-pyrrolo[3,2-b]pyridin-6-yl)-3,5-dimethylisoxazole] was tested, and the IC50 was 0.1 to 1000 nM.
Work on `Cc1noc(C)c1-c1cnc2c(c1)c(-c1ccc(C(=O)O)cc1OC(F)(F)F)cn2C(C1CC1)C1CC1` [P-0156, 4-(1-(dicyclopropylmethyl)-5-(3,5-dimethylisoxazol-4-yl)-1H-pyrrolo[2,3-b]pyridin-3-yl)-3-(trifluoromethoxy)benzoic acid] yielded an IC50 of 0.1 to 1000 nM.
`Cc1noc(C)c1-c1cnc2c(c1)c(-c1ccc(C(=O)O)cc1OC(F)(F)F)cn2CC1CC(F)(F)C1` [P-0157, 4-(1-((3,3-difluorocyclobutyl)methyl)-5-(3,5-dimethylisoxazol-4-yl)-1H-pyrrolo[2,3-b]pyridin-3-yl)-3-(trifluoromethoxy)benzoic acid] showed an IC50 of 0.1 to 1000 nM.
With `Cc1noc(C)c1-c1cnc2c(c1)c(-c1ccc(C(=O)O)cc1OC(F)(F)F)cn2-c1ccccn1` [P-0158, 4-(5-(3,5-dimethylisoxazol-4-yl)-1-(pyridin-2-yl)-1H-pyrrolo[2,3-b]pyridin-3-yl)-3-(trifluoromethoxy)benzoic acid] the IC50 was 0.1 to 1000 nM.
`Cc1noc(C)c1-c1cnc2c(Cc3ccccn3)cn(-c3ccc(C(=O)O)cc3OC(F)(F)F)c2c1` [P-0159, 4-(6-(3,5-dimethylisoxazol-4-yl)-3-(pyridin-2-ylmethyl)-1H-pyrrolo[3,2-b]pyridin-1-yl)-3-(trifluoromethoxy)benzoic acid] gave an IC50 of 0.1 to 1000 nM.
`Cc1noc(C)c1-c1cnc2c(-c3cnn(C)c3)c(C(F)(F)F)n([C@@H](C)c3ccccn3)c2c1` [P-0160, (S)-3,5-dimethyl-4-(3-(1-methyl-1H-pyrazol-4-yl)-1-(1-(pyridin-2-yl)ethyl)-2-(trifluoromethyl)-1H-pyrrolo[3,2-b]pyridin-6-yl)isoxazole] showed an IC50 of 0.1 to 1000 nM.
For `Cc1noc(C)c1-c1cnc2c(-c3cccc(CC(=O)O)c3)c(C(F)(F)F)n([C@@H](C)c3ccccn3)c2c1` [P-0161, (S)-2-(3-(6-(3,5-dimethylisoxazol-4-yl)-1-(1-(pyridin-2-yl)ethyl)-2-(trifluoromethyl)-1H-pyrrolo[3,2-b]pyridin-3-yl)phenyl)acetic acid], the IC50 was 0.1 to 1000 nM.
Work on `Cc1noc(C)c1-c1cnc2c(-c3cccc(C(=O)O)c3)c(C(F)(F)F)n([C@@H](C)c3ccccn3)c2c1` [P-0162, (S)-3-(6-(3,5-dimethylisoxazol-4-yl)-1-(1-(pyridin-2-yl)ethyl)-2-(trifluoromethyl)-1H-pyrrolo[3,2-b]pyridin-3-yl)benzoic acid] yielded an IC50 of 0.1 to 1000 nM.
For `Cc1noc(C)c1-c1cnc2c(C(O)(C3CC3)C3CC3)cn(-c3ccc(C(=O)O)cc3OC(F)(F)F)c2c1` [P-0163, 4-(3-(dicyclopropyl(hydroxy)methyl)-6-(3,5-dimethylisoxazol-4-yl)-1H-pyrrolo[3,2-b]pyridin-1-yl)-3-(trifluoromethoxy)benzoic acid], the IC50 was 0.1 to 1000 nM.
`Cc1noc(C)c1-c1cnc2c(-c3cc(C(=O)O)ccc3Cl)cn(C(C)(c3ccccn3)c3ccccn3)c2c1` [P-0164, 4-chloro-3-(1-(1,1-di(pyridin-2-yl)ethyl)-6-(3,5-dimethylisoxazol-4-yl)-1H-pyrrolo[3,2-b]pyridin-3-yl)benzoic acid] gave an IC50 of 0.1 to 1000 nM.
`CCOc1cc(C(=O)O)cc(OCC)c1-n1cc(C(O)(C2CC2)C2CC2)c2ncc(-c3c(C)noc3C)cc21` [P-0165, 4-(3-(dicyclopropyl(hydroxy)methyl)-6-(3,5-dimethylisoxazol-4-yl)-1H-pyrrolo[3,2-b]pyridin-1-yl)-3,5-diethoxybenzoic acid] was tested, and the IC50 was 0.1 to 1000 nM.
`Cc1noc(C)c1-c1cnc2c(-c3cc(C(=O)O)ccc3C#N)cn(C(C)(c3ccccn3)c3ccccn3)c2c1` [P-0166, 4-cyano-3-(1-(1,1-di(pyridin-2-yl)ethyl)-6-(3,5-dimethylisoxazol-4-yl)-1H-pyrrolo[3,2-b]pyridin-3-yl)benzoic acid] showed an IC50 of 0.1 to 1000 nM.
In the case of `C#Cc1ccccc1-c1cn(C(C)(c2ccccn2)c2ccccn2)c2cc(-c3c(C)noc3C)cnc12` [P-0167, 4-(1-(1,1-di(pyridin-2-yl)ethyl)-3-(2-ethynylphenyl)-1H-pyrrolo[3,2-b]pyridin-6-yl)-3,5-dimethylisoxazole], the IC50 is reported as 0.1 to 1000 nM.
In the case of `CCOc1cc(C(=O)O)cc(OCC)c1-n1cc(-c2ccccc2)c2ncc(-c3c(C)noc3C)cc21` [P-0168, 4-(6-(3,5-dimethylisoxazol-4-yl)-3-phenyl-1H-pyrrolo[3,2-b]pyridin-1-yl)-3,5-diethoxybenzoic acid], the IC50 is reported as 0.1 to 1000 nM.
`Cc1noc(C)c1-c1cnc2c(-c3ccccc3C#N)cn(C(C)(c3ccccn3)c3ccccn3)c2c1` [P-0169, 2-(1-(1,1-di(pyridin-2-yl)ethyl)-6-(3,5-dimethylisoxazol-4-yl)-1H-pyrrolo[3,2-b]pyridin-3-yl)benzonitrile] gave an IC50 of 0.1 to 1000 nM.
